Results on 33 compounds are retold here after patent US20060120980A1, “Novel dermatological composition using bio-activating organocatalysts” (priority 2004, published 2006).

A short description of series [1]: appearance of the final solution (Cosmetics, formulary consideration). It counts as physicochemical. Conditions: appearance of final solution after reaction with Cu. From the text: In certain aspects of the present invention, the catalyst system using transition metals (Cu or Fe) as trace catalytic metals, may require the presence of an optional redox agent (antioxidant) so as to produce H2O2. In order to form hydrogen peroxide, for example, it is necessary for the redox agent to reduce Cu^++ to Cu^+. […] In expanding the number of antioxidants, the following table was assembled after experimentation, based upon reactivity with Cu, the ability to reduce CoQ10 to H2CoQ10 and the appearance of the final solution (formulary consideration).

Series [2] deals with papilla-corium layer of skin. Kind of series: bioreactive skin test (pin-head like projections, activation of the papilla-corium layer). It is filed as in vivo. Further details: key: * = slight bioreactivity; *** = gross bioreactivity.
Text: In this assay, compounds are applied to the dermis of an animal and potentially bio-reactive compounds (i.e., those which might function as bio-activating organocatalysts) produce a multiplicity of very small, pin-head like projections on the epidermis produced by activation of the papilla-corium layer. […] The bioreactivity of the formula can be judged by the intensity and time of the reaction.
The formula according to the present invention which are bioreactive in a skin test show a multiplicity of very small, pin-head like projections on the epidermis produced by activation of the papilla-corium layer. […] The activation ensues for about 2-4 hours and is from slight to gross depending on the formulation and returns to the normal skin landscape. The bioreactivity of the formula can be judged by the intensity and time of the reaction.
Essentially, the skin cream formulations containing organocatalyst are tested on skin. Those compositions which are bioreactive in the skin test show a multiplicity of very small, pin-head like projections on the epidermis produced by activation of the papilla-corium layer. The activation continues for about 2-4 hours and is from slight to gross depending on the formulation and returns to the normal skin landscape. The bioreactivity of the formula can be judged by the intensity and time of the reaction.
Series [3] is described as follows: solubility of organocatalyst in Eucerin skin cream (table comment). It counts as physicochemical. Conditions: 20 % by weight in Eucerin skin cream. As to the method:
In order to test the relative bioreactivity of organocatalysts according to the present invention, a number of potential organocatalysts were formulated into a skin cream using Eucerin™ at concentrations ranging from 2% to 25% by weight of the final skin cream formulation. These skin creams were formulated by dissolving the organocatalyst at a desired amount into the Eucerin. The formulated compositions were then tested for skin bioreactivity according to the method previously described hereinabove.

For series [4] the following is noted: metal chelate; cited from earlier work.
[5] abbreviates: Table 1A, 20 % by weight in Eucerin skin cream.
The mark [6] stands for this setting: Table 1A, 2 % by weight in Eucerin skin cream.
[7] abbreviates: Table 1A, 25 % by weight in Eucerin skin cream.

`N[C@@H](CCC(=O)N[C@@H](CS)C(=O)NCC(=O)O)C(=O)O` [Glutathione]: in series [1], the Cosmetics result is “clear solution”.
Consider `CC(=O)N1CCC[C@H]1C(=O)O` [N-acetyl-1-proline], for which the Bioreactivity entry in series [2] (Table 1, 20 % by weight) is reported as “*”; in series [2] (setting [5]) it was “*”. In addition, the “Comment (solubility)” value in series [3] is “low solubility”.
As for `C=C[C@H]1C[N@@]2CC[C@H]1C[C@@H]2[C@@H](O)c1ccnc2ccc(OC)cc12` [quinidine, reference compound], the Bioreactivity entry is recorded as “*” in series [2] (Table 1, 2 % by weight) and “*” in series [2] (setting [6]).
Regarding `O=C([O-])CN(CCN(CC(=O)[O-])CC(=O)O)CC(=O)O.[Cu+2]` [Copper EDTA], in series [4], the “Affinity Constant” value is 10^23.
Consider `CC(O)C(=O)[O-].CC(O)C(=O)[O-].[Fe+2]` (stereo not shown) [Ferrous lactate], for which the “Affinity Constant” value in series [4] is listed as 10^12.
Take Copper lacate: the “Affinity Constant” value in series [4] was 10^10-10^12.
In the case of `O=C(O)c1cc(O)c(O)c(O)c1` [Gallic acid], the Cosmetics entry in series [1] is recorded as “ugly brown ppt”.
On the same count and under the same terms, for `O=C(O)/C=C/c1ccc(O)c(O)c1` [Caffeic acid] the value was “dark brown ppt”.
With `CC(C)(C)OC(=O)[C@@H]1CCCN1` [1-proline-t-butyl ester], the Bioreactivity result is reported as “***” in series [2] (Table 1, 20 % by weight) and “***” in series [2] (setting [5]).
With `CCCOC(=O)c1cc(O)c(O)c(O)c1` [Propyl gallate], the Cosmetics entry in series [1] is recorded as “ugly brown ppt”.
Regarding `O=C1NCC(C(=O)O)N1` (stereo not shown) [2-imidazolidone-4-carboxylic acid], the Bioreactivity entry in series [2] (Table 1, 2 % by weight) was “*”; in series [2] (Table 1, 20 % by weight) it was “***”; in series [2] (setting [6]), “*”; in series [2] (setting [5]), “***”.
Take `CC(=O)N[C@@H](CS)C(=O)O` [N-acetyl cysteine]: the Cosmetics result in series [1] is “clear solution”.
As for `O=C(O)CCCC[C@@H]1CCSS1` (racemic) [Lipoic Acid], the Cosmetics result in series [1] was “clear solution”.
As to `Oc1ccccc1O.[Fe+3]` [Ferric catechol], the “Affinity Constant” value in series [4] is 10^20.
Take `O=C(O)CO` [Glycolic acid]: the “Affinity Constant” value in series [4] is reported as 10^5.
With `O=C(O)[C@@H]1CCCN1` [1-proline], the Bioreactivity result in series [2] (in vivo) was “*** and *”.
For Vitamin E, in series [1], the Cosmetics entry is “ugly brown ppt”.
As to `N[C@@H](Cc1c[nH]cn1)C(=O)O.[Fe+2]` [Ferrous histidine], the “Affinity Constant” value in series [4] is recorded as 10^16.
As to `O=C(O)c1ccccc1O.[Fe+3]` [Ferric salicylic acid], in series [4], the “Affinity Constant” value is on record as 10^16.
Regarding `O=C(O)[C@@H]1CC(O)CN1` (stereo partly shown) [1-4-hydroxyproline], the Bioreactivity entry in series [2] (Table 1, 2 % by weight) is reported as “*”; in series [2] (Table 1, 25 % by weight) it was “***”; in series [2] (setting [6]), “*”; in series [2] (setting [7]), “***”.
Take `O=c1[nH]c(=O)c2[nH]c(=O)[nH]c2[nH]1` [Uric acid]: the Cosmetics result in series [1] is given as “slightly colored ppt”.
Regarding `O=C(O)C1CCCN1` (stereo not shown) [d,1-proline], the Bioreactivity entry in series [2] (in vivo) is recorded as “***”.
In the case of `N[C@@H](Cc1c[nH]cn1)C(=O)O.[Cu]` [Copper histidine], the “Affinity Constant” value in series [4] is listed as 10^16.
In the case of `N[C@@H](Cc1ccccc1)C(=O)O` [1-phenylalanine], the Bioreactivity entry in series [2] (Table 1, 20 % by weight) is on record as “*”; in series [2] (setting [5]), “*”. Also, in series [3], the “Comment (solubility)” value is recorded as “low solubility”.
Turning to `C=C[C@H]1CN2CC[C@H]1C[C@H]2[C@H](O)c1ccnc2ccc(OC)cc12.O=S(=O)(O)O` [quinine hydrosulfate, reference compound], the Bioreactivity result in series [2] (Table 1, 2 % by weight) is recorded as “*”; in series [2] (setting [6]) it was “*”.
As to `O=C([O-])CN(CCN(CC(=O)[O-])CC(=O)[O-])CC(=O)[O-].[Fe+2].[H+].[H+]` [Ferrous EDTA], in series [4], the “Affinity Constant” value was 10^25.
In the case of Copper tripeptide (GHG), the “Affinity Constant” value in series [4] was 10^16.
For `O=C([O-])CN(CCN(CC(=O)[O-])CC(=O)O)CC(=O)[O-].[Fe+3]` [Ferric EDTA], in series [4], the “Affinity Constant” value was 10^25.
For `CC(=O)N(O)CCCCCNC(=O)CCC(=O)N(O)CCCCCNC(=O)CCC(=O)N(O)CCCCCN` [Desferrioxamine], the “Affinity Constant” value in series [4] is 10^30.
For `O=C([O-])C(O)C(O)C(=O)[O-].[Na+].[Na+]` (stereo not shown) [disodium tartrate, reference compound], the Bioreactivity result in series [2] (setting [5]) is on record as “no reactivity”.
Copper gluconate: the “Affinity Constant” value in series [4] is recorded as 10^6.
For `N[C@@H](CS)C(=O)O` [Cysteine], the Cosmetics result in series [1] is on record as “clear solution”.
As to `CC(O)CO` (stereo not shown) [propylene glycol, reference compound], in series [2] (setting [7]), the Bioreactivity result is listed as “no reactivity”.
